Results on 1 compound are retold here after US7405317B2, “Phosphate-bearing prodrugs of sulfonyl hydrazines as hypoxia-selective antineoplastic agents” (priority 2004, dated 2008).

Molecules are shown by their SMILES.

The subject of series [1] is CHO-SCS-II (non-transfected parental line). The series can be described thus: Aerobic/hypoxic cell survival, parental CHO cells. In kind it is cell-based. The settings on record: drug 10 μM. The method, then: EMT6 or CHO (parental or human cytochrome P-450 reductase transfected) cells, seeded in glass milk dilution bottles, were gassed for 2 hours through a rubber septum fitted with 13 gauge (inflow) and 18 gauge (outflow) needles with a mixture of 5% CO2, oxygen at various concentrations, with the balance of the mixture made up of nitrogen, to establish various hypoxic conditions. Drugs were then injected without disrupting hypoxia. After two hours, cells were collected and plated in a clonogenic assay to determine the surviving fraction, compared to untreated controls.
For in vitro analysis, KS119W must be converted to KS119OH (1) in an AP-catalyzed reaction shown above in FIG. 2, as the phosphorylated parent drug cannot cross cell membranes. KS119OH is then used in all subsequent in vitro studies shown in this section.
Like KS119, cytochrome P-450 reductase can activate KS1190H under hypoxic conditions.

Series [2] has as its system SHP77 human lung carcinoma. Briefly: In vivo anti-tumor activity, SHP77 xenograft. On the set-up: species or system mice. Conditions: SHP77/Scid-Beige; dose VNP40541 110 mpk, VNP40551 85 mpk. The method, then:
(§1) The anti-tumor effects of aforementioned prodrugs are evaluated in both solid and liquid tumor models, including the B16-F10 murine melanoma, HTB177 human lung carcinoma models, DLD1 human colon carcinoma, EMT-6 murine mammary gland carcinoma, L1210 murine leukemia, lymphoma, prostate cancer, pancreatic cancer, and head-and-neck cancer. The prodrugs are given intravenously, orally, or intraperitoneally at doses from 10 mg/kg to 2000 mg/kg; they are give at different dosing schedules such as 4 times daily, once daily, or once every several days for up to 60 doses. Testing tumor cells were implanted subcutaneously into mice, which were randomized into groups immediately after tumor cell implantation (Day 0). Mice were injected intraperitoneally (ip) with either a bolus injection of 0.1 mL PBS or drug. The treatment was carried out in a designed dosing schedule. Tumor measurement in three dimensions was determined once a week with the formula L×H×W/2, where L, H, and W represent length, height, and width, respectively. The toxicity of these drugs in mice was mild as determined by body weight loss and animal appearance.
Efficacy of KS119 was studied in murine tumor model and human xenograft models. EMT-6 murine mammary carcinoma cells (3×10^5 cells/mouse) were implanted subcutaneously into Balb/c mice. […]

Series [3] can be described thus: Toxicity of treatment in tumor-bearing mice (body weight, blood cell count, appearance). The settings on record: three tumor models in mice, edema observed. Format: in vivo. The method, then: as §1
Efficacies of KS119W and KS119 were compared with equivalence molar doses in EMT-6 tumor and H460 tumor models. KS119W was formulated with 0.25M sodium bicarbonate solution. The treatment was started when tumors researched 150 to 200 mm^3, and lasted up to 2 weeks. KS119 at doses of 80 and 100 mg/kg and KS119W at doses of 97.6 and 121.3 mg/kg were daily administrated into mice via ip injection. […] The toxicity of KS119 and KS119W were dose-dependent. To assess the toxicity of treatment, body weight and peripheral blood cell count were monitored after treatment.
Combined therapy of KS119W with cytoxan (CTX) was evaluated by using KS119W at dose below the MTD in combination with nontoxic dose of CTX against EMT-6 murine mammary carcinoma and H460 human lung carcinoma in CD-1 nude mice. The tumors were allowed to grow to a size of approximately 200 mm^3. In H460 tumor model, the animals received either with 4 doses 180 mg/kg and 1 dose 240 mg/kg of […] or CTX at dose of 100 mg/kg per dose per animal, ip injecting the drugs on 15, 22, 27, 34 and 43 days after the tumor implantation. In the combination studies, CTX was given two hours after dosing KS119W. […] The inhibition of combination therapy was statistically significant against all control groups with p values of 0.003, 0.015 and 0.038, respectively. Additive toxicity at the doses used for combination was manageable; while the 180 mg/kg qw ×4 doses of KS119W alone caused a maximum net body weight loss of 4.5%, the same dose in combination with 4 doses of CTX at 100 mg/kg per week caused 8.6% weight loss but no death. A similar degree of growth inhibition was also observed with EMT-6 tumor model. […]

Take `C[C@@H](OC(=O)N(N(CCCl)S(C)(=O)=O)S(C)(=O)=O)c1ccc([N+](=O)[O-])c(OP(=O)(O)O)c1` [VNP40541]: in series [1] (0.1% oxygen), the “Surviving fraction at 0.1% oxygen” value stood at 0.04737. For the same compound, in series [1] (air), the “Surviving fraction in air” value came out at 1.086. In series [2], the “Inhibition (%)” value is 83%. Besides, the “toxicity compared between the enantiomers” value in series [3] was “lower toxicity, particularly having less edema observed”.
